Measurements published in ChEMBL document CHEMBL1629692, “Susceptibility of gram-negative pathogens isolated from patients with complicated intra-abdominal infections in the United States, 2007-2008: results of the Study for Monitoring Antimicrobial Resistance Trends (SMART)” (2010).

What was measured:
Format in all cases: functional
Citrobacter freundii [1] = assay: Antimicrobial activity against Citrobacter freundii obtained from patient with complicated intra-abdominal infection assessed as percent susceptible isolates by agar dilution method
Klebsiella aerogenes [2] = assay: Antimicrobial activity against Enterobacter aerogenes obtained from patient with complicated intra-abdominal infection assessed as percent susceptible isolates by agar dilution method
Enterobacter cloacae [3] = assay: Antimicrobial activity against Enterobacter cloacae obtained from patient with complicated intra-abdominal infection assessed as percent susceptible isolates by agar dilution method
Escherichia coli [4] = assay: Antimicrobial activity against Escherichia coli obtained from patient with complicated intra-abdominal infection assessed as percent susceptible isolates by agar dilution method
Escherichia coli [5] = assay: Antimicrobial activity against extended-spectrum beta-lactamase-positive Escherichia coli obtained from patient with complicated intra-abdominal infection assessed as percent susceptible isolates by agar dilution method
Escherichia coli [6] = assay: Antimicrobial activity against extended-spectrum beta-lactamase-negative Escherichia coli obtained from patient with complicated intra-abdominal infection assessed as percent susceptible isolates by agar dilution method
Klebsiella pneumoniae [7] = assay: Antimicrobial activity against Klebsiella pneumoniae assessed as percent susceptible isolates by agar dilution method
Klebsiella pneumoniae [8] = assay: Antimicrobial activity against extended-spectrum beta-lactamase-positive Klebsiella pneumoniae assessed as percent susceptible isolates by agar dilution method
Klebsiella pneumoniae [9] = assay: Antimicrobial activity against extended-spectrum beta-lactamase-negative Klebsiella pneumoniae assessed as percent susceptible isolates by agar dilution method
Klebsiella oxytoca [10] = assay: Antimicrobial activity against extended-spectrum beta-lactamase-positive Klebsiella oxytoca assessed as percent susceptible isolates by agar dilution method
Proteus mirabilis [11] = assay: Antimicrobial activity against extended-spectrum beta-lactamase-positive Proteus mirabilis assessed as percent susceptible isolates by agar dilution method
Serratia marcescens [12] = assay: Antimicrobial activity against Serratia marcescens assessed as percent susceptible isolates by agar dilution method
Pseudomonas aeruginosa [13] = assay: Antimicrobial activity against Pseudomonas aeruginosa assessed as percent susceptible isolates by agar dilution method
Pasteurella sp. [14] = assay: Antimicrobial activity against Pasteurella sp. assessed as percent susceptible isolates by agar dilution method
Pseudomonas fluorescens [15] = assay: Antimicrobial activity against Pseudomonas fluorescens assessed as percent susceptible isolates by agar dilution method
[16] = test system: Stenotrophomonas maltophilia; assay: Antimicrobial activity against Stenotrophomonas maltophilia assessed as percent susceptible isolates by agar dilution method
Acinetobacter sp. [17] = assay: Antimicrobial activity against Acinetobacter sp. assessed as percent susceptible isolates by agar dilution method
Enterobacteriaceae = assay: Antimicrobial activity against Enterobacteriaceae Extended-Spectrum beta-lactamase positive assessed as percent susceptible isolates by agar dilution method
Citrobacter freundii [18] = assay: Antimicrobial activity against Citrobacter freundii obtained from patient with complicated intra-abdominal infection assessed as percent susceptible isolates by agar dilution method in presence of beta-lactamase inhibitor Tazobactam
Klebsiella aerogenes [19] = assay: Antimicrobial activity against Enterobacter aerogenes obtained from patient with complicated intra-abdominal infection assessed as percent susceptible isolates by agar dilution method in presence of beta-lactamase inhibitor Tazobactam
Enterobacter cloacae [20] = assay: Antimicrobial activity against Enterobacter cloacae obtained from patient with complicated intra-abdominal infection assessed as percent susceptible isolates by agar dilution method in presence of beta-lactamase inhibitor Tazobactam
Escherichia coli [21] = assay: Antimicrobial activity against Escherichia coli obtained from patient with complicated intra-abdominal infection assessed as percent susceptible isolates by agar dilution method in presence of beta-lactamase inhibitor Tazobactam
Escherichia coli [22] = assay: Antimicrobial activity against extended-spectrum beta-lactamase-positive Escherichia coli obtained from patient with complicated intra-abdominal infection assessed as percent susceptible isolates by agar dilution method in presence of beta-lactamase inhibitor Tazobactam
Escherichia coli [23] = assay: Antimicrobial activity against extended-spectrum beta-lactamase-negative Escherichia coli obtained from patient with complicated intra-abdominal infection assessed as percent susceptible isolates by agar dilution method in presence of beta-lactamase inhibitor Tazobactam
Klebsiella pneumoniae [24] = assay: Antimicrobial activity against Klebsiella pneumoniae assessed as percent susceptible isolates by agar dilution method in presence of beta-lactamase inhibitor Tazobactam
Klebsiella pneumoniae [25] = assay: Antimicrobial activity against extended-spectrum beta-lactamase-positive Klebsiella pneumoniae assessed as percent susceptible isolates by agar dilution method in presence of beta-lactamase inhibitor Tazobactam
Klebsiella pneumoniae [26] = assay: Antimicrobial activity against extended-spectrum beta-lactamase-negative Klebsiella pneumoniae assessed as percent susceptible isolates by agar dilution method in presence of beta-lactamase inhibitor Tazobactam
Klebsiella oxytoca [27] = assay: Antimicrobial activity against extended-spectrum beta-lactamase-positive Klebsiella oxytoca assessed as percent susceptible isolates be agar dilution method in presence of beta-lactamase inhibitor Tazobactam
Proteus mirabilis [28] = assay: Antimicrobial activity against extended-spectrum beta-lactamase-positive Proteus mirabilis assessed as percent susceptible isolates by agar dilution method in presence of beta-lactamase inhibitor Tazobactam
Pseudomonas aeruginosa [29] = assay: Antimicrobial activity against Pseudomonas aeruginosa assessed as percent susceptible isolates by agar dilution method in presence of beta-lactamase inhibitor Tazobactam
Serratia marcescens [30] = assay: Antimicrobial activity against Serratia marcescens assessed as percent susceptible isolates by agar dilution method in presence of beta-lactamase inhibitor Tazobactam
Pasteurella sp. [31] = assay: Antimicrobial activity against Pasteurella sp. assessed as percent susceptible isolates by agar dilution method in presence of beta-lactamase inhibitor Tazobactam
Pseudomonas fluorescens [32] = assay: Antimicrobial activity against Pseudomonas fluorescens assessed as percent susceptible isolates by agar dilution method in presence of beta-lactamase inhibitor Tazobactam
[33] = test system: Stenotrophomonas maltophilia; assay: Antimicrobial activity against Stenotrophomonas maltophilia assessed as percent susceptible isolates by agar dilution method in presence of beta-lactamase inhibitor Tazobactam
Acinetobacter sp. [34] = assay: Antimicrobial activity against Acinetobacter sp. assessed as percent susceptible isolates by agar dilution method in presence of beta-lactamase inhibitor Tazobactam

SMILES	Activity (Citrobacter freundii [1])	Activity (Klebsiella aerogenes [2])	Activity (Enterobacter cloacae [3])	Activity (Escherichia coli [4])	Activity (Escherichia coli [5])	Activity (Escherichia coli [6])	Activity (Klebsiella pneumoniae [7])	Activity (Klebsiella pneumoniae [8])	Activity (Klebsiella pneumoniae [9])	Activity (Klebsiella oxytoca [10])	Activity (Proteus mirabilis [11])	Activity (Serratia marcescens [12])	Activity (Pseudomonas aeruginosa [13])	Activity (Pasteurella sp. [14])	Activity (Pseudomonas fluorescens [15])	Activity [16]	Activity (Acinetobacter sp. [17])	also measured
C[C@@H](O)[C@H]1C(=O)N2C(C(=O)O)=C(S[C@@H]3CN[C@H](C(=O)Nc4cccc(C(=O)O)c4)C3)[C@H](C)[C@H]12	94%	100%	92%	99%	100%	99%	96%	78%	100%	100%	100%	100%						
CO/N=C(\C(=O)N[C@@H]1C(=O)N2C(C(=O)[O-])=C(C[N+]3(C)CCCC3)CS[C@H]12)c1csc(N)n1	94%	100%			48%		91%	47%	100%	96%	100%	100%	72%	23%	23%	23%	23%	
NCC[C@H](O)C(=O)N[C@@H]1C[C@H](N)[C@@H](O[C@H]2O[C@H](CN)[C@@H](O)[C@H](O)[C@H]2O)[C@H](O)[C@H]1O[C@H]1O[C@H](CO)[C@@H](O)[C@H](N)[C@H]1O [AMIKACIN]	100%	100%	99%	98%	71%	100%	95%	69%	100%	100%	100%	100%	96%	31%	31%	31%	31%	
CO/N=C(\C(=O)N[C@@H]1C(=O)N2C(C(=O)O)=C(COC(C)=O)CS[C@H]12)c1csc(N)n1 [CEFOTAXIME]	67%	79%	62%	96%	38%	99%	85%	19%	99%	96%	100%	100%	9%	8%	8%	8%	8%	Activity (Enterobacteriaceae): 6%
CO[C@@]1(NC(=O)Cc2cccs2)C(=O)N2C(C(=O)O)=C(COC(N)=O)CS[C@@H]21 [CEFOXITIN]	17%	8%	1%	93%	71%	94%	84%	66%	87%	96%	100%	26%						
CC(C)(O/N=C(\C(=O)N[C@@H]1C(=O)N2C(C(=O)[O-])=C(C[n+]3ccccc3)CS[C@H]12)c1csc(N)n1)C(=O)O [CEFTAZIDIME]	72%	63%	66%	96%	52%	98%	86%	19%	100%	96%	94%	100%	76%	32%	32%	32%	32%	Activity (Enterobacteriaceae): 31%
CO/N=C(\C(=O)N[C@@H]1C(=O)N2C(C(=O)O)=C(CSc3nc(=O)c(O)nn3C)CS[C@H]12)c1csc(N)n1 [CEFTRIAXONE]	67%	79%	64%	96%	38%	98%	85%	19%	99%	89%	100%	100%	17%	15%	15%	15%	15%	Activity (Enterobacteriaceae): 7%
O=C(O)c1cn(C2CC2)c2cc(N3CCNCC3)c(F)cc2c1=O [CIPROFLOXACIN]	72%	96%			33%	82%	80%	19%		96%	97%	93%		15%	15%	15%	15%	
C[C@@H](O)[C@H]1C(=O)N2C(C(=O)O)=C(SCCNC=N)C[C@H]12 [IMIPENEM ANHYDROUS]	100%	100%	100%	100%	100%	100%	99%	94%	100%	100%	93%	100%	78%	69%	69%	69%	69%	
C[C@H]1COc2c(N3CCN(C)CC3)c(F)cc3c(=O)c(C(=O)O)cn1c23.C[C@H]1COc2c(N3CCN(C)CC3)c(F)cc3c(=O)c(C(=O)O)cn1c23.O [LEVOFLOXACIN]	78%	96%	88%	81%	33%	83%	84%	28%	96%	100%	100%	93%	72%	47%	47%	47%	47%	
CCN1CCN(C(=O)N[C@@H](C(=O)N[C@@H]2C(=O)N3[C@@H]2SC(C)(C)[C@@H]3C(=O)O)c2ccccc2)C(=O)C1=O [PIPERACILLIN]																		Activity (Citrobacter freundii [18]): 72%; Activity (Klebsiella aerogenes [19]): 88%; Activity (Enterobacter cloacae [20]): 69%; Activity (Escherichia coli [21]): 96%; Activity (Escherichia coli [22]): 62%; Activity (Escherichia coli [23]): 98%; Activity (Klebsiella pneumoniae [24]): 85%; Activity (Klebsiella pneumoniae [25]): 28%; Activity (Klebsiella pneumoniae [26]): 97%; Activity (Klebsiella oxytoca [27]): 89%; Activity (Proteus mirabilis [28]): 100%; Activity (Pseudomonas aeruginosa [29]): 83%; Activity (Serratia marcescens [30]): 100%; Activity (Pasteurella sp. [31]): 23%; Activity (Pseudomonas fluorescens [32]): 23%; Activity [33]: 23%; Activity (Acinetobacter sp. [34]): 23%
